Test results from US11697648B2, “Fused pyrimidine pyridinone compounds as JAK inhibitors” (THERAVANCE BIOPHARMA R&D IP, LLC, priority 2019, dated 2023).

How the values were obtained:
JAK1 = JAK1 (Homo sapiens (Human), UniProt P23458); test: Biochemical JAK1 kinase assay (LanthaScreen)
Outline: (§1)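 GST-JAK + GFP-STAT1 peptide, HEPES pH 7.5/MgCl2/EGTA/Brij-35 buffer; cpd preincubation 1 h RT; ATP start, 1 h RT; stop with 10 mM EDTA + 2 nM Tb-anti-pSTAT1; TR-FRET 520/495. 4-parameter IC50 → pKi (Cheng-Prusoff).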

JAK3 = JAK3 (Homo sapiens (Human), UniProt P52333); test: Biochemical JAK3 kinase assay (LanthaScreen); conditions: for JAK3 (pKi)-JAK1 (pKi): selectivity JAK3 over JAK1, difference of pKi
Outline: as §1

JAK2 = JAK2 (Homo sapiens (Human), UniProt O60674); test: Biochemical JAK2 kinase assay (LanthaScreen)
Outline: as §1

[1] = test system: oxazolone-induced colitis; test: Mouse model of oxazolone-induced colitis; type: in vivo, BALB/C mice
Procedure: Assay 6: Mouse Model of Oxazolone-Induced Colitis
Oxazolone-induced colitis is an experimental model that has a histological resemblance to human ulcerative colitis (Heller et al. Immunology, 2002, 17, 629-638). Adult BALB/C mice from Harlan were used in the assay. On day 1, animals were lightly anesthetized with isoflurane and the hairs between the shoulder were carefully removed before oxazolone (4%, 150 μL, 4:1 acetone: olive oil formulation) or vehicle solution was slowly applied for skin sensitization. Seven days after skin sensitization, the mice were fasted around 6 hours prior, anesthetized with ketamine/xylazine injection, and a 1 mL syringe equipped with a 3.5-F catheter, filled with oxazolone solution, was inserted carefully about 4 cm into the colon of the mouse. Following insertion, 50 μL of the oxazolone solution (0.8% in 1:1 ethanol:water formulation) was injected very slowly (over 30 sec using an injection pump) into the colon. Drug treatment (PO, QD or BID or TID) or vehicle was initiated a day prior to the oxazolone intrarectal (IR) challenge. Two-day post oxazolone intrarectal challenge, the disease was assessed by treatment-blinded experimenters for each mouse according to the criteria score: stool consistency score (0, normal; 2, loose; 4, diarrhea), gross bleeding score (0, absence; 2, blood tinged; 4, presence); Combined stool score endpoint=stool consistency score+stool blood score.
Select compounds were tested in the assay.

Tyk2 = Tyk2 (Homo sapiens (Human), UniProt P29597); test: Biochemical Tyk2 kinase assay (LanthaScreen)
Outline: as §1

[2] = Colon and plasma mouse pharmacokinetics; type: in vivo; conditions: mouse, colon tissue / plasma; male Balb/c mice, 10 mg/kg PO; ratio of the colon AUC to the plasma AUC
Outline: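 Male Balb/c mice given 10 mg/kg PO in 1% HPMC + 0.1% Tween-80; plasma, colon tissue and colon contents taken at 0.5, 2 and 6 h, quantified by LC/MS/MS. Non-compartmental analysis on means of 2 animals/time point; colon:plasma ratio taken as colon AUC over plasma AUC.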

JAK2, sequence (O60674 whole entry): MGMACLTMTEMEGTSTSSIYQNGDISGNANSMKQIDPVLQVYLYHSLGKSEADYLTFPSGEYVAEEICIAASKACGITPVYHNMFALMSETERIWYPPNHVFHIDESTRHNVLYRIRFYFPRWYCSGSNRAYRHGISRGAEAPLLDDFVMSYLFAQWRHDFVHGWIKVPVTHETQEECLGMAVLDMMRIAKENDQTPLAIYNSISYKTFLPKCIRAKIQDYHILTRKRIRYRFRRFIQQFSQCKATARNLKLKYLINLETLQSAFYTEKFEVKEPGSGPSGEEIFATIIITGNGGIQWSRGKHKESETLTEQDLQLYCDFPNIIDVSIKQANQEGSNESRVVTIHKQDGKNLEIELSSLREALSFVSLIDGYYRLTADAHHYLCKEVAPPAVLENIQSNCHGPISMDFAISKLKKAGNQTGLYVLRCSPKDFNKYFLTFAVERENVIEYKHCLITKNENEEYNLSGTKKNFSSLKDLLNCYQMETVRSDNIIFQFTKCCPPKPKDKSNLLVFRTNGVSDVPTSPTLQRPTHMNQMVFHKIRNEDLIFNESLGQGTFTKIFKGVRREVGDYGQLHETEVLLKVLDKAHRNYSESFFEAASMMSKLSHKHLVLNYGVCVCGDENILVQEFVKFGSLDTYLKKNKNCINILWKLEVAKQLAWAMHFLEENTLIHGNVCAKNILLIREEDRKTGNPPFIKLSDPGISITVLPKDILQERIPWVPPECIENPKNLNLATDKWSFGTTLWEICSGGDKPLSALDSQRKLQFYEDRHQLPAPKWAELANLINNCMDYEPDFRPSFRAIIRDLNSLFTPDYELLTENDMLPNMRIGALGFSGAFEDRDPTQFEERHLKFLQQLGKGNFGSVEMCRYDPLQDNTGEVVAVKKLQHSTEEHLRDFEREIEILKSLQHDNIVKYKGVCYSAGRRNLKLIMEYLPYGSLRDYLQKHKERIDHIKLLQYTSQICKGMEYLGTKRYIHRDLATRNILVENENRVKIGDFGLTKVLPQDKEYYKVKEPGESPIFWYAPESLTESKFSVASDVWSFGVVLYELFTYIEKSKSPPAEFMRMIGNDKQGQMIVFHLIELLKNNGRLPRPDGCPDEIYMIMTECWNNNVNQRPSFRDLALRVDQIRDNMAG
JAK3, sequence (P52333 whole entry): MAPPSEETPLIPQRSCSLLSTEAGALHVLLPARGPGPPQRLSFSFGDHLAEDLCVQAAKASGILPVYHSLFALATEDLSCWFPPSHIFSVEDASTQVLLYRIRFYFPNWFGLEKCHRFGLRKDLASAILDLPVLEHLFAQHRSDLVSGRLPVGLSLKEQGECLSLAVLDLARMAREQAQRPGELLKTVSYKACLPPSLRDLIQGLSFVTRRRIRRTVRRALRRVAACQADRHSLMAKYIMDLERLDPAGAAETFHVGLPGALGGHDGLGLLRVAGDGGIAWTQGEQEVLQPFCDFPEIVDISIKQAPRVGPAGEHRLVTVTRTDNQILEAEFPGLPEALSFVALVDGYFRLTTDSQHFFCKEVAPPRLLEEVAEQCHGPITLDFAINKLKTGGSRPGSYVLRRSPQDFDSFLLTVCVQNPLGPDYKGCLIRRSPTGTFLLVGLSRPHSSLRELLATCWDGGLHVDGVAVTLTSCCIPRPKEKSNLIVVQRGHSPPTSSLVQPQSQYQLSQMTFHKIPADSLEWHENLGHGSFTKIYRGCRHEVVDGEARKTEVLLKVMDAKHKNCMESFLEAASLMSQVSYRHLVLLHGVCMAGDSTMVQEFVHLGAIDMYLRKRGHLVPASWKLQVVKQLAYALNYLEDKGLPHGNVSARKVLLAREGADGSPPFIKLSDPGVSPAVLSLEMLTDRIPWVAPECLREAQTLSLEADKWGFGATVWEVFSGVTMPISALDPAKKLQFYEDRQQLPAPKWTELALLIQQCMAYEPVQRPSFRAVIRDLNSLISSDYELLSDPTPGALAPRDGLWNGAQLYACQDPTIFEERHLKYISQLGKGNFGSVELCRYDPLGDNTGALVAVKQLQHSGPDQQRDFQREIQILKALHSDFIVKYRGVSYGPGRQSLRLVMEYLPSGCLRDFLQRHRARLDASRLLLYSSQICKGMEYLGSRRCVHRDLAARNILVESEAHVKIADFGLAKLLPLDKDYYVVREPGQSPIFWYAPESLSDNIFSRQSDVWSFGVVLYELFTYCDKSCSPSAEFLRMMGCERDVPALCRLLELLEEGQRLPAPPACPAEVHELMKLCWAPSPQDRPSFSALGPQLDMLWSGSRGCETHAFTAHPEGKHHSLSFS
Tyk2, sequence (P29597 whole entry): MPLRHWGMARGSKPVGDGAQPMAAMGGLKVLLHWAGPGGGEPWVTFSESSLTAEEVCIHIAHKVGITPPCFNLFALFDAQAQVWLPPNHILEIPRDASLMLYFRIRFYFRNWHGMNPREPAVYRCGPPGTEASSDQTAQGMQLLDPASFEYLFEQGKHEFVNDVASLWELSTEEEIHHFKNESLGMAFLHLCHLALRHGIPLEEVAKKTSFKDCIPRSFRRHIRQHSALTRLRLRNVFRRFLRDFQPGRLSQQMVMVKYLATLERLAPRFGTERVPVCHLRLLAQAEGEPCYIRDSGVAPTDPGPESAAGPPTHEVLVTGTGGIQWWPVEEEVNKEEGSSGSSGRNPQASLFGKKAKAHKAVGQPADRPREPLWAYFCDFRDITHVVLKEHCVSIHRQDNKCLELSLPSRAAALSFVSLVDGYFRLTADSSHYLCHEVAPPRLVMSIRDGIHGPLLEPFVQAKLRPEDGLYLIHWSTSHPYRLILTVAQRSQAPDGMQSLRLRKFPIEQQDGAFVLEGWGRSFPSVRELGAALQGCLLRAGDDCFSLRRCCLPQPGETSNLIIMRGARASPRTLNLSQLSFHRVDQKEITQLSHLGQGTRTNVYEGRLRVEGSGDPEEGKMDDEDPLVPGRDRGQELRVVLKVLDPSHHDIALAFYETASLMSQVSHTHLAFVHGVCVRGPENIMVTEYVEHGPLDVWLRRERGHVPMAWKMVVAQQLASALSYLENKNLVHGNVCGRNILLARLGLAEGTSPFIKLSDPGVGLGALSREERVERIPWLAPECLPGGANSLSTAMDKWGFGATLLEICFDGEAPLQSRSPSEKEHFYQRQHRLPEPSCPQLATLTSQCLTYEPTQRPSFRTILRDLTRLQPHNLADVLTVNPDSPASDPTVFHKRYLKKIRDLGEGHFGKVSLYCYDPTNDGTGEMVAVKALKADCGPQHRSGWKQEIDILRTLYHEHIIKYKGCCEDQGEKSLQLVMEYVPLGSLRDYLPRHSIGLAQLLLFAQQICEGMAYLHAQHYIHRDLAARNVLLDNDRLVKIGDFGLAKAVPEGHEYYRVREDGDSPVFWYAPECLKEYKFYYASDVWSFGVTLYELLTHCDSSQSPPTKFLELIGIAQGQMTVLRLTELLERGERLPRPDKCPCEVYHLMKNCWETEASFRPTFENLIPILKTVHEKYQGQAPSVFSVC
JAK1, sequence (P23458 whole entry): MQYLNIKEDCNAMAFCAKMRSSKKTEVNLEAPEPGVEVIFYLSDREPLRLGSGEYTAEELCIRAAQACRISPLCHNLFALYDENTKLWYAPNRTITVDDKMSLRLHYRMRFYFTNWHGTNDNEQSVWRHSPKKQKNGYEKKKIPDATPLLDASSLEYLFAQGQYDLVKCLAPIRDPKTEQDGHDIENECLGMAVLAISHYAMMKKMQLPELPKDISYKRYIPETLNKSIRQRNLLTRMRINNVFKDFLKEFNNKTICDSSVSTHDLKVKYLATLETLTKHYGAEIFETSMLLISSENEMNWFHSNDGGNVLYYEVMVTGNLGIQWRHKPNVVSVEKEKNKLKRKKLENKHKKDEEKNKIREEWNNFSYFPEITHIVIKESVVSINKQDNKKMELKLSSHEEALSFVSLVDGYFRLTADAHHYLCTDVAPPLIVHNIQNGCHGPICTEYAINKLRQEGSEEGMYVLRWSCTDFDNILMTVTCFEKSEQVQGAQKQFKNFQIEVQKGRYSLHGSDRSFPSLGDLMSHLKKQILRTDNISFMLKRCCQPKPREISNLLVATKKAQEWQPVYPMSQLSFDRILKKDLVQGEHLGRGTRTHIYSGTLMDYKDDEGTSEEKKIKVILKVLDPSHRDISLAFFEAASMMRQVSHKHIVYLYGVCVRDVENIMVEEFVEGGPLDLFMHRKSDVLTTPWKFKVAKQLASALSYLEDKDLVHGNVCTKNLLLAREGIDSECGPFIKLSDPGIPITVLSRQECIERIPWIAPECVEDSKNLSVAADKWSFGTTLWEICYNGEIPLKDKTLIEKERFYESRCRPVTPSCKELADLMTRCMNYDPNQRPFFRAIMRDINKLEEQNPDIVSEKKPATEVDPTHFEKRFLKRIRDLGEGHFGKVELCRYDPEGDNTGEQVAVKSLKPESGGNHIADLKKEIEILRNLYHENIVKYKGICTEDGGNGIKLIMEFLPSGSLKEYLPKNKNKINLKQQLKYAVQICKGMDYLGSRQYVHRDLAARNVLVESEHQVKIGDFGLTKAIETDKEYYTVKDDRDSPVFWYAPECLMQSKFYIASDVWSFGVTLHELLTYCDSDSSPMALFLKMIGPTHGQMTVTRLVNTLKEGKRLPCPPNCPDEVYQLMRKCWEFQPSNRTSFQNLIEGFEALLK

| Structure (SMILES) | JAK 1 (pKi) (JAK1) | JAK 3 (pKi) (JAK3) | JAK3 (pKi)-JAK1 (pKi) (JAK3) | JAK 2 (pKi) (JAK2) | combined stool score endpoint as compared with vehicle treated animals ([1]; dose of 1 mg/kg (PO, BID)) | combined stool score endpoint as compared with vehicle treated animals ([1]; dose of 3 mg/kg (PO, BID)) | Tyk 2 (pKi) (Tyk2) | Kp [2] |
| --- | --- | --- | --- | --- | --- | --- | --- | --- |
| C=CC(=O)N1CCN(CCn2c(=O)ccc3cnc(Nc4ccc(N5CCN(C)CC5)cc4)nc32)CC1 [Example 1, 8-(2-(4-acryloylpiperazin-1-yl)ethyl)-2-((4-(4-methylpiperazin-1-yl)phenyl)amino)pyrido[2,3-d]pyrimidin-7(8H)-one] | E (E represents a pKi value of 7 or below (Ki of 100 nM or above)) | B (B represents pKi value between 9 and 10 (Ki between 1 nM and 0.1 nM)) | A (A represents a value of 3 or above) | E (E represents a pKi value of 7 or below (Ki of 100 nM or above)) | statistically significant decrease | statistically significant decrease | E (E represents a pKi value of 7 or below (Ki of 100 nM or above)) | > 1000 |
| C=CC(=O)N1CC(CCn2c(=O)ccc3cnc(Nc4ccc(N5CCN(C(C)=O)CC5)cc4)nc32)C1 [Example 2, 2-((4-(4-acetylpiperazin-1-yl)phenyl)amino)-8-(2-(1-acryloylazetidin-3-yl)ethyl)pyrido[2,3-d]pyrimidin-7(8H)-one] | E (E represents a pKi value of 7 or below (Ki of 100 nM or above)) | A (A represents a pKi value≥10 (Ki≤0.1 nM)) | A (A represents a value of 3 or above) | E (E represents a pKi value of 7 or below (Ki of 100 nM or above)) | statistically significant decrease |  | E (E represents a pKi value of 7 or below (Ki of 100 nM or above)) | > 100 |
| C=CC(=O)N1CCN(CCn2c(=O)ccc3cnc(Nc4ccc(N5CCN(C(=O)CCSC)CC5)cc4)nc32)CC1 [Example 4, 8-(2-(4-acryloylpiperazin-1-yl)ethyl)-2-((4-(4-(3-(methylthio)propanoyl)piperazin-1-yl)phenyl)amino)pyrido[2,3-d]pyrimidin-7(8H)-one] | E (E represents a pKi value of 7 or below (Ki of 100 nM or above)) | B (B represents pKi value between 9 and 10 (Ki between 1 nM and 0.1 nM)) | A (A represents a value of 3 or above) | E (E represents a pKi value of 7 or below (Ki of 100 nM or above)) | statistically significant decrease |  | E (E represents a pKi value of 7 or below (Ki of 100 nM or above)) | > 1000 |
| C=CC(=O)N1CC(CCn2c(=O)ccc3cnc(Nc4cccc(CN5CCN(C(=O)N(C)C)CC5)c4)nc32)C1 [Example 5, 4-(3-((8-(2-(1-acryloylazetidin-3-yl)ethyl)-7-oxo-7,8-dihydropyrido[2,3-d]pyrimidin-2-yl)amino)benzyl)-N,N-dimethylpiperazine-1-carboxamide] | E (E represents a pKi value of 7 or below (Ki of 100 nM or above)) | A (A represents a pKi value≥10 (Ki≤0.1 nM)) | A (A represents a value of 3 or above) | E (E represents a pKi value of 7 or below (Ki of 100 nM or above)) | statistically significant decrease | statistically significant decrease | E (E represents a pKi value of 7 or below (Ki of 100 nM or above)) | > 100 |
| C=CC(=O)N1CC(CCn2c(=O)ccc3cnc(Nc4cccc(N5CCN(C(=O)CCSC)CC5)c4)nc32)C1 [Example 7, 8-(2-(1-acryloylazetidin-3-yl)ethyl)-2-((3-(4-(3-(methylthio)propanoyl)piperazin-1-yl)phenyl)amino)pyrido[2,3-d]pyrimidin-7(8H)-one] | E (E represents a pKi value of 7 or below (Ki of 100 nM or above)) | B (B represents pKi value between 9 and 10 (Ki between 1 nM and 0.1 nM)) | A (A represents a value of 3 or above) | E (E represents a pKi value of 7 or below (Ki of 100 nM or above)) | statistically significant decrease |  | E (E represents a pKi value of 7 or below (Ki of 100 nM or above)) | > 100 |
| C=CC(=O)N1CCN(CCn2c(=O)ccc3cnc(Nc4cnn(C)c4)nc32)[C@@H](CC)C1 [Example 12, (S)-8-(2-(4-acryloyl-2-ethylpiperazin-1-yl)ethyl)-2-((1-methyl-1H-pyrazol-4-yl)amino)pyrido[2,3-d]pyrimidin-7(8H)-one] | E (E represents a pKi value of 7 or below (Ki of 100 nM or above)) | B (B represents pKi value between 9 and 10 (Ki between 1 nM and 0.1 nM)) | A (A represents a value of 3 or above) | E (E represents a pKi value of 7 or below (Ki of 100 nM or above)) | statistically significant decrease |  | E (E represents a pKi value of 7 or below (Ki of 100 nM or above)) | > 50 |
| C=CC(=O)N1CC(CCn2c(=O)ccc3cnc(Nc4ccc(N5CCN(C(=O)CSC)CC5)cc4)nc32)C1 [Example 13, 8-(2-(1-acryloylazetidin-3-yl)ethyl)-2-((4-(4-(2-(methylthio)acetyl)piperazin-1-yl)phenyl)amino)pyrido[2,3-d]pyrimidin-7(8H)-one] | E (E represents a pKi value of 7 or below (Ki of 100 nM or above)) | B (B represents pKi value between 9 and 10 (Ki between 1 nM and 0.1 nM)) | A (A represents a value of 3 or above) | E (E represents a pKi value of 7 or below (Ki of 100 nM or above)) | statistically significant decrease | statistically significant decrease | E (E represents a pKi value of 7 or below (Ki of 100 nM or above)) | > 1000 |
